Molecules are shown by their SMILES.

These results are taken from ChEMBL document CHEMBL1127311, “Derivatives of 4-(2'-methoxyphenyl)-1-[2'-(N-2"-pyridinyl-p-iodobenzamido)ethyl]pipera zine (p-MPPI) as 5-HT1A ligands” (J Med Chem, 1994).

Assay [1] deals with T1, 5-hydroxytryptamine receptor 1A (Rattus norvegicus, UniProt P19327).
T1 sequence (P19327 whole entry): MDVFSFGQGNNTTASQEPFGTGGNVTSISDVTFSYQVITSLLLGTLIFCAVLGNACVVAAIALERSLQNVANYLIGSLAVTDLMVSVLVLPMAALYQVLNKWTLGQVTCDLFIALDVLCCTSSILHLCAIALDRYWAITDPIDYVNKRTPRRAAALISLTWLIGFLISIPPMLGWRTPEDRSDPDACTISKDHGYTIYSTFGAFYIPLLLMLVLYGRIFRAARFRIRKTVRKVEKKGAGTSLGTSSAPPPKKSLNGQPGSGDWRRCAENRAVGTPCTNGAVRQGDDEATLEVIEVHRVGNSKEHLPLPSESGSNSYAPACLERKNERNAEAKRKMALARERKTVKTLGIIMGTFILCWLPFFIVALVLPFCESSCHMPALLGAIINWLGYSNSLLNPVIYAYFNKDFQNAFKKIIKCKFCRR
Description: biochemical.
Description: In vitro binding affinity to 5-hydroxytryptamine 1A receptor in rat hippocampal homogenate by [125I](R)-(+)-trans-8-OH-PIPAT displacement.

Assay [2] addresses T1, 5-hydroxytryptamine receptor 1A. The assay is described as follows: biochemical. This is another data set of the same source.
Description: In vitro binding affinity to 5-hydroxytryptamine 1A receptor using [125I](R)-(+)-trans-8-OH-PIPAT as radioligand in rat hippocampal homogenate

Description for Rattus norvegicus: Tested for the dissociation constant for [125I]MPPI to rat hippocampal homogenates

For the compound `COc1ccccc1N1CCN(CCN(C(=O)c2cccc(C)c2)c2ccccn2)CC1`, in assay [1], the Ki – broadly, the dissociation constant of the complex between target and ligand, obtained from inhibition or displacement – is 16.1 nM. The same measure, in the same setting: with `CCCCCCc1ccc(C(=O)N(CCN2CCN(c3ccccc3OC)CC2)c2ccccn2)cc1` the figure was 57.9 nM; with `COc1ccccc1N1CCN(CCN(C(=O)c2ccc(N)c(I)c2)c2ccccn2)CC1`, 17.7 nM.

As to `COc1ccccc1N1CCN(CCN(C(=O)c2ccc(C)cc2)c2ccccn2)CC1`, in assay [1], the Ki was determined as 2.2 nM. Still for that read-out and setting: with `CCCCCc1ccc(C(=O)N(CCN2CCN(c3ccccc3OC)CC2)c2ccccn2)cc1` the figure was 75 nM. On the same count and under the same terms, next, `CCCCc1ccc(C(=O)N(CCN2CCN(c3ccccc3OC)CC2)c2ccccn2)cc1`: 13.2 nM; `CCCCCCCc1ccc(C(=O)N(CCN2CCN(c3ccccc3OC)CC2)c2ccccn2)cc1`: 81.8 nM.

`CCCc1ccc(C(=O)N(CCN2CCN(c3ccccc3OC)CC2)c2ccccn2)cc1`: in assay [1], the Ki came to 10.3 nM.

The compound `COc1ccccc1N1CCN(CCN(C(=O)c2ccc(CCl)cc2)c2ccccn2)CC1` gave a Ki in assay [1] of 3.5 nM.

As for `COc1ccccc1N1CCN(CCN(C(=O)c2ccc(N)cc2)c2ccccn2)CC1`, in assay [1], the Ki was 10 nM. With `COc1ccccc1N1CCN(CCN(C(=O)c2ccc(NC(=O)CCl)cc2)c2ccccn2)CC1`, in assay [1], affinity was put at a Ki of 22 nM. Take `COc1ccccc1N1CCN(CCN(C(=O)c2ccc(F)cc2)c2ccccn2)CC1`: the affinity in assay [1] corresponds to a Ki of 3.2 nM. Moreover, the Kd (commonly the equilibrium constant for the complex coming apart) in the assay listed under Rattus norvegicus is 0.3 nM. For the compound `COc1ccccc1N1CCN(CCN(C(=O)c2ccc(I)cc2)c2ccccn2)CC1`, in the assay filed under Rattus norvegicus, binding was characterised by a dissociation constant (Kd) of 0.3 nM. As for `COc1ccccc1N1CCN(CCN(C(=O)c2ccc(C(C)(C)C)cc2)c2ccccn2)CC1`, the Ki in assay [1] turned out to be 27 nM.

The compound `CCc1ccc(C(=O)N(CCN2CCN(c3ccccc3OC)CC2)c2ccccn2)cc1` displayed a Ki in assay [1] of 9.3 nM. The same measure, in the same setting: with `COc1ccccc1N1CCN(CCN(C(=O)c2ccc(N=[N+]=[N-])c(I)c2)c2ccccn2)CC1` the figure was 25 nM. `COc1ccccc1N1CCN(C[C@@H](C(=O)NC(C)(C)C)c2ccccc2)CC1`: the IC50 (commonly the midpoint of a concentration-inhibition curve) in assay [2] was 15 nM. In assay [1], `COc1ccccc1N1CCN(CCN(C(=O)c2ccccc2)c2ccccn2)CC1` had a Ki of 2.5 nM.
